Where “and” joins values, the source holds several entries; their conditions need not be identical. Identical values can stand only once. Like-named read-outs stand apart in the source and are kept apart here. Each block holds one compound with its values, some of them ahead of it.
How the values were obtained:
[1] = Plasma pharmacokinetics of CGA and metabolites after 400 mg green coffee extract, ten volunteers; format: in vivo, human; conditions: for Cmax / AUC / Tmax: plasma, 400 mg green coffee extract oral, mean ± SD, n = 10; for molar ratio 3,5-diCQA:4,5-diCQA:3,4-diCQA in plasma / molar ratio 5-CQA:4-CQA:3-CQA in plasma: ratios of AUC in plasma; for contribution to AUC of total phenolic compounds in plasma: mean values of plasma AUC; for contribution to total phenolics in plasma: after green coffee extract consumption
Text: In a further phase of the study, ten non-smoker volunteers (22-55 y), five male and five female, were recruited. […] They were asked to eat only animal foods, refined cereal foods and artificial beverages. […] Blood samples were collected into heparin-containing tubes. Baseline blood aliquots were used to determine hematocrit and hemoglobin levels by standard methods. Plasma samples were obtained by centrifugation of the blood samples immediately after being drawn. Urine samples were also collected at baseline interval (minus 2-0 h) and at intervals of 0-2 h; 2-4 h; 4-6 h and 6-8 h after coffee consumption into appropriate plastic containers. Total urine volume was measured for each collection period. Plasma and urine aliquots for determination of CGA were acidified with HCl and kept frozen in liquid nitrogen until analyses. Urine aliquots for determination of creatinine were acidified with HCl and kept at −20° C. until analyses.
(§1) Results of CGA and phenolic acids in urine were normalized by creatinine excretion.

[2] = target: T1, hepatic Glc-6-Pase system (Homo sapiens, UniProt O43826); assay: Glc-6-Pase hydrolysis in intact human liver microsomes (phosphate release); format: biochemical; conditions: for Percentage inhibition of G6Pase: each compound at its naturally occurring concentration in 0.6 mM extract, 2 mM substrate; for Contribution to Glc-6-Pase system inhibition by the green coffee extract: inhibition of compound divided by inhibition of 0.6 mM total CGAs from the extract
T1 construct: Glc-6-Pase hydrolysis in intact human liver microsomes; tissue BD Biosciences; host or cells: pooled human liver microsomes, intact
T1 sequence (O43826 1-429): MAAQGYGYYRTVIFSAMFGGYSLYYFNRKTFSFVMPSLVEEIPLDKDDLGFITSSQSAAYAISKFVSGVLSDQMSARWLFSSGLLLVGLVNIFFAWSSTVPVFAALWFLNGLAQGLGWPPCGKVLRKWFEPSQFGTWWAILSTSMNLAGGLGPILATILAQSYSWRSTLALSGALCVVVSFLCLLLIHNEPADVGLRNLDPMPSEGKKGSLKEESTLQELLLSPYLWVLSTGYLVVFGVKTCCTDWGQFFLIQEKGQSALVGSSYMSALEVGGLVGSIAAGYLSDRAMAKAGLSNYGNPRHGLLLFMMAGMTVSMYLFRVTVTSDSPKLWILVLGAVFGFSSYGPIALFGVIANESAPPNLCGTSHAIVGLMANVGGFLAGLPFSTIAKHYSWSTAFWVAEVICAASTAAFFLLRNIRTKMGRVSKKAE
Procedure: A secondary purpose of Example 8 was to determine the inhibitory effects of a series of structurally-related compounds in the extract, such as caffeoylquinic acids and caffeoylferuloylquinic acids. Example 8 tested whether the extract could inhibit the hepatic Glc-6-Pase system by measuring enzymatic activity in human liver microsomes. These experiments were conducted with or without the extract at final CGA concentrations of 0.2, 0.4 and 0.6 mM. The effect of the extract on Glc-6-Pase activity was tested as a function of […] substrate concentration (2-10 mM).
Measurement of Glc-6-Pase Activity in Microsomes: Microsomal Glc-6-Pase activity was measured on the basis of the rate of release of phosphate under the assay conditions that were described by Wallert et al., Kinetic analysis of glucose-6-phosphatase: an investigative approach to carbohydrate metabolism and kinetics. Biochem. Mol. Biol. Educ. 2001, 29, 199-203. The enzyme assays were performed at 37° C. in a final volume of […] containing 100 mM cacodylic acid, pH 6.5 and concentrations of the substrate […] ranging from 2 to 10 mM.
The reaction was started by adding intact microsomes and was stopped with the addition of 3.2 mL of colorimetric reagent [9 volumes of molybdate (0.42% ammonium molybdate in 1 N H2SO4), 2 volumes of 5% SDS and 1 volume of 10% ascorbic acid, freshly prepared and stored on ice for a maximum of 6 h]. All samples were incubated for 30 minutes at 45° C., and the absorbance of the phosphate-molybdate complex was measured at 820 nm.
Microsomal intactness was quantified by measuring Man-6-Pase activity. Anion, W J. Measurement of intactness of rat liver endoplasmic reticulum. Methods Enzymol. 1989, 174, 58-67. In a preliminary study, Glc-6-Pase activity in intact human liver microsomes was determined on the basis of microsomal protein concentration and incubation time to obtain optimal experimental conditions, that is, 100 μg of microsomal proteins and 5 minutes of incubation (data not shown). Quantification was performed at optimal wavelengths (330 nm) for the CGAs during chromatographic separation. Samples were filtered (0.45 μm), and 2 μL was injected directly. The standard deviation for three analyses of the same sample was <5% for all compounds.
Preparation of Test Compounds: Stock solutions of test compounds were prepared in ultrapure water (pH 6.5) and diluted with assay reagent to the final concentrations.
Enzymatic activity was expressed as micromoles of phosphate released per minute per milligram of protein. Results were expressed as means±standard deviation (SD) of three independent experiments. Percentage of inhibition of Glc-6 Pase system activity was calculated by dividing the initial rate of reaction in microsomes that were treated with individual compounds by the initial rate of reaction in untreated microsomes. […] Statistical analysis was performed using an ANOVA test followed by a post hoc Tukey test under a normality assumption (Shapiro Wilk) or Kruskall Wallis nonparametric test followed by Bonferroni adjusted Mann-Whitney test otherwise; p<0.05 was considered to be significant. […]

[3] = Urinary excretion of CGA and metabolites after 400 mg green coffee extract, ten volunteers; format: in vivo, human
Procedure: In a further phase of the study, ten non-smoker volunteers (22-55 y), five male and five female, were recruited. Subjects were instructed to avoid consumption of phenolic-containing foods during the 48 h prior to the study. They were asked to eat only animal foods, refined cereal foods and artificial beverages. On the day of the study, after 10-12 h overnight fasting, an I.V. catheter was inserted into the antecubital vein and a baseline heparinized blood sample was obtained. […] Blood samples were collected into heparin-containing tubes. Baseline blood aliquots were used to determine hematocrit and hemoglobin levels by standard methods. Plasma samples were obtained by centrifugation of the blood samples immediately after being drawn. Urine samples were also collected at baseline interval (minus 2-0 h) and at intervals of 0-2 h; 2-4 h; 4-6 h and 6-8 h after coffee consumption into appropriate plastic containers. Total urine volume was measured for each collection period. Plasma and urine aliquots for determination of CGA were acidified with HCl and kept frozen in liquid nitrogen until analyses. Urine aliquots for determination of creatinine were acidified with HCl and kept at −20° C. until analyses.
as §1

[4] = system: Glc-6-Pase; conditions: intact rat microsomes; cited from earlier work
[5] = target: T2, Glc-6-Pase (Rattus norvegicus, UniProt P43428); conditions: fully disrupted microsomes; cited from earlier work
T2 construct: host or cells: rat microsomes (liver)
T2 sequence (P43428 1-357): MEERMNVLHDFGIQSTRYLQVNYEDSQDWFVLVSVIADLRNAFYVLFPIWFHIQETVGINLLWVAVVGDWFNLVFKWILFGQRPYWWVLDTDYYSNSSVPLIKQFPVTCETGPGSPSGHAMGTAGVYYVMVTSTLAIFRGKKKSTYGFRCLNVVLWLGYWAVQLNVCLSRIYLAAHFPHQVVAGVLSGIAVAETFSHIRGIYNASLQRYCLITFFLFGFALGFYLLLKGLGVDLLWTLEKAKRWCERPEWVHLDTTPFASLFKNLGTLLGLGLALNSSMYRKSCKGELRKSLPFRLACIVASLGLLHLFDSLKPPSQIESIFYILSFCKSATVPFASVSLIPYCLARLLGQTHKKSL

[6] = both sexes, human, po, 400 mg, read-out: AUC
[7] = both sexes, human, po, 400 mg, read-out: Tmax

contribution to AUC of total phenolic compounds in plasma [1]: 31.3%
AUC [1]: 17.9 ± 15.3 µM·h
Cmax [1]: 5900 ± 4200 nM
Tmax [1]: 3.3 ± 2.4 h
molar ratio 5-CQA:4-CQA:3-CQA in plasma [1]: 6.0
Percentage inhibition of G6Pase [2]: 9.2 ± 1.4%
Contribution to Glc-6-Pase system inhibition by the green coffee extract [2]: 25%
content in baseline urine, variation among the subjects ([3]; both, human, in vivo): up to 0.35 μmol
Structure (SMILES): O=C(C=Cc1ccc(O)c(O)c1)OC1CC(O)(C(=O)O)CC(O)C1O (stereo not shown) [5-CQA, 5-caffeoylquinic acid]
inhibition of Glc-6-Pase [4]: inhibits Glc-6-Pase
inhibition of Glc-6-Pase [5]: no effect

contribution to total phenolics in plasma [1]: 6.6%
Cmax ([1]; both sexes, human, po, 400 mg): 1100 ± 900 nM
AUC [1, 6]: 3.8 ± 3.2 µM·h
Tmax [1, 7]: 3.6 ± 2.1 h
Structure (SMILES): O=C(O)/C=C/c1ccc(O)c(O)c1 [Caffeic acid]

contribution to total phenolics in plasma [1]: 6.2%
Cmax ([1]; both sexes, human, po, 400 mg): 800 ± 300 nM
AUC [1, 6]: 3.6 ± 1.5 µM·h
Tmax [1, 7]: 2.9 ± 1.8 h
Structure (SMILES): COc1cc(/C=C/C(=O)O)ccc1O [Ferulic acid]

total urinary excretion ([3]; subject 1, 0-8 h after consumption): 43.47 µmol
total urinary excretion ([3]; subject 1, Baseline): 9.24 µmol
total urinary excretion ([3]; subject 2, 0-8 h after consumption): 18.67 µmol
total urinary excretion ([3]; subject 2, Baseline): 3.55 µmol
total urinary excretion ([3]; subject 3, 0-8 h after consumption): 9.41 µmol
total urinary excretion ([3]; subject 3, Baseline): 1.86 µmol
total urinary excretion ([3]; subject 4, 0-8 h after consumption): 7.98 µmol
total urinary excretion ([3]; subject 4, Baseline): 0.70 µmol
total urinary excretion ([3]; subject 5, 0-8 h after consumption): 25.45 µmol
total urinary excretion ([3]; subject 5, Baseline): 10.19 µmol
total urinary excretion ([3]; subject 6, Baseline): 10.57 µmol
total urinary excretion ([3]; subject 7, 0-8 h after consumption): 14.03 µmol
total urinary excretion ([3]; subject 7, Baseline): 0.25 µmol
total urinary excretion ([3]; subject 8, 0-8 h after consumption): 68.21 µmol
total urinary excretion ([3]; subject 8, Baseline): 6.79 µmol
total urinary excretion ([3]; subject 9, 0-8 h after consumption): 57.69 µmol
total urinary excretion ([3]; subject 9, Baseline): 1.68 µmol
total urinary excretion ([3]; subject 10, 0-8 h after consumption): 112.22 µmol
total urinary excretion ([3]; subject 10, Baseline): 25.25 µmol
Structure (SMILES): O=C(O)c1cc(O)c(O)c(O)c1 [Gallic Acid]

contribution to total phenolics in plasma [1]: 6.1%
Cmax ([1]; both sexes, human, po, 400 mg): 900 ± 200 nM
AUC [1, 6]: 3.5 ± 1.9 µM·h
Tmax [1, 7]: 2.9 ± 1.8 h
Structure (SMILES): COc1ccc(/C=C/C(=O)O)cc1O [Isoferulic acid]

identification in urine ([3]; human, in vivo): not identified
Structure (SMILES): O=C(O)c1ccc(O)c(O)c1 [Protocatechuic acid]

identification in urine ([3]; human, in vivo): not identified
Structure (SMILES): COc1cc(CCC(=O)O)ccc1O [dihydroferulic acid]

identification in urine ([3]; human, in vivo): not identified
Structure (SMILES): O=C(O)CNC(=O)c1ccccc1 [hippuric acid]

contribution to total phenolics in plasma [1]: 1.4%
Cmax ([1]; both sexes, human, po, 400 mg): 400 ± 30 nM
AUC [1, 6]: 0.8 ± 0.2 µM·h
Tmax [1, 7]: 2.5 ± 1.8 h
Structure (SMILES): O=C(O)/C=C/c1ccc(O)cc1 [p-coumaric acid]

Second part, the compound before the results:

Structure (SMILES): O=C(C=Cc1ccc(O)c(O)c1)OC1CC(O)(C(=O)O)CC(O)C1OC(=O)C=Cc1ccc(O)c(O)c1 (stereo not shown) [3,4-diCQA, 3,4-dicaffeoylquinic acid]
Cmax ([1]; both sexes, human, po, 400 mg): 1500 ± 1600 nM
AUC [1, 6]: 5 ± 4.9 µM·h
Tmax [1, 7]: 2.6 ± 1.8 h
molar ratio 3,5-diCQA:4,5-diCQA:3,4-diCQA in plasma [1]: 1.0
Percentage inhibition of G6Pase [2]: 6.9 ± 4.3%
Contribution to Glc-6-Pase system inhibition by the green coffee extract [2]: 19%

Structure (SMILES): O=C(C=Cc1ccc(O)c(O)c1)OC1CC(O)(C(=O)O)CC(OC(=O)C=Cc2ccc(O)c(O)c2)C1O (stereo not shown) [3,5-diCQA, 3,5-dicaffeoylquinic acid]
Cmax ([1]; both sexes, human, po, 400 mg): 2700 ± 2700 nM
AUC [1, 6]: 8.7 ± 8.3 µM·h
Tmax [1, 7]: 3.2 ± 2.5 h
molar ratio 3,5-diCQA:4,5-diCQA:3,4-diCQA in plasma [1]: 1.7
Contribution to Glc-6-Pase system inhibition by the green coffee extract [2]: 0%

Structure (SMILES): O=C(C=Cc1ccc(O)c(O)c1)OC1CC(O)(C(=O)O)CC(O)C1O (stereo not shown) [3-CQA, 3-caffeoylquinic acid]
contribution to AUC of total phenolic compounds in plasma [1]: 5.2%
AUC [1]: 3.0 ± 4.5 µM·h
Cmax [1]: 900 ± 1400 nM
molar ratio 5-CQA:4-CQA:3-CQA in plasma [1]: 1.0
Contribution to Glc-6-Pase system inhibition by the green coffee extract [2]: 0%

Structure (SMILES): O=C(C=Cc1ccc(O)c(O)c1)OC1CC(O)(C(=O)O)CC(O)C1OC(=O)C=Cc1ccc(O)c(O)c1 (stereo not shown) [4,5-diCQA, 4,5-dicaffeoylquinic acid]
AUC [1]: 6.8 ± 5.7 µM·h
Cmax [1]: 2500 ± 3000 nM
Tmax [1]: 3.3 ± 2.5 h
molar ratio 3,5-diCQA:4,5-diCQA:3,4-diCQA in plasma [1]: 1.4
Percentage inhibition of G6Pase [2]: 13% and 12.8 ± 2.6%
Contribution to Glc-6-Pase system inhibition by the green coffee extract [2]: 35%

Structure (SMILES): O=C(C=Cc1ccc(O)c(O)c1)OC1C(O)CC(O)(C(=O)O)CC1O (stereo not shown) [4-CQA, 4-caffeoylquinic acid]
Cmax ([1]; both sexes, human, po, 400 mg): 1400 ± 1100 nM
AUC [1, 6]: 4.3 ± 5.4 µM·h
Tmax [1, 7]: 3.6 ± 2.2 h
contribution to AUC of total phenolic compounds in plasma [1]: 7.5%
molar ratio 5-CQA:4-CQA:3-CQA in plasma [1]: 1.4
Percentage inhibition of G6Pase [2]: 14% and 14.4 ± 1.2%
Contribution to Glc-6-Pase system inhibition by the green coffee extract [2]: 40%
total urinary excretion ([3]; human, in vivo): 0.04 µmol

Structure (SMILES): O=C(O)c1ccccc1 [benzoic acid]
identification in urine ([3]; before or after the extract consumption): not identified
